Results reported in US20240216412A1, “OXIDIZED NICOTINAMIDE ADENINE DINUCLEOTIDE (NAD+) PRECURSOR TREATMENT FOR HEART FAILURE ALLEVIATION INDEPENDENT OF MITOCHONDRIAL PROTEIN DEACETYLATION” (University of Washington, priority 2022, published 2024).

What was measured:
[1] = tested on: chronic pressure overload (TAC) induced heart failure in WT and Sirt3Ko mice; test: Transthoracic echocardiography after transverse aortic constriction (TAC) or sham surgery; assay type: in vivo, mouse; settings: for EF / FS / IVS; s / LV Mass / LV Mass (corr.) / LV Vol; d / LV Vol; s / LVID; d / LVID; s / LVPW; d / LVPW; s: NR; for IVS; d: NR 500 mg/kg body weight daily for eight weeks
Description: The present disclosure provides boosting intracellular NAD^+ with nicotinamide riboside chloride (NR) to protect Sirtuin 3 (Sirt3) knockout mice from heart failure. NR is a natural NAD precursor that bypasses nicotinamide phosphoribosyltransferase (NAMPT) to stimulate intracellular NAD^+ synthesis via the Nrk reaction (Bieganowski and Brenner, 2004; Canto et al., 2012; Diguet et al., 2018; Trammell et al., 2016). […] Immunoblotting confirmed the absence of Sirt3 and increased lysine acetylation in mitochondrial extracts from the knockout hearts (FIG. 9A). Pressure overload was induced by transverse aortic constriction (TAC) surgery for 12 weeks. Intracellular NAD^+ level was increased when mice had already developed cardiac hypertrophy and dysfunction, to model a therapeutic approach (FIG. 1A). After 4 weeks of chronic pressure overload, cardiac function was assessed using trans-thoracic M-mode echocardiography.
Mice randomly received either NR (500 mg/kg body weight) (Canto et al., 2012) or vehicle saline daily for eight-weeks. Representative M-mode images for the echocardiography can be found in FIGS. 1C and 1D. Four weeks of chronic pressure overload caused similar declines in left ventricular fractional shortening (FS %) in mice randomized to NR or vehicle groups for either WT or Sirt3Ko (FIGS. 1E and 1F). […] Similar to NR treated WT, cardiac hypertrophy, left ventricular cavity dilation, and lung edema were less severe in Sirt3Ko TAO mice that received NR treatment (FIGS. 1B-1J). All echocardiography parameters can be found in Table 1 below.
All procedures involving animal use were approved by the Institutional Animal Care and Use Committee (IACUC) of the University of Washington. Wild-type mice (129S1/SvlmJ Stock No: 002448) and Sirtuin 3 knockout mice (129-Sirt3tm1.1Fwa/J Stock No: 012755) were purchased from Jackson Laboratories. All mice were housed at 22° C. with a 12-hr light, 12-hr dark cycle with free access to water and standard chow. Male mice were used for experiments in this study.
Transverse aortic constriction. Male mice (3-4 months old) underwent transverse aortic constriction (TAC) or sham surgery. Briefly, mice were anesthetized with an IP injection of 130 mg/kg ketamine and 8.8 mg/kg xylazine in saline. Mice were intubated with 20 G cannula and ventilated 140 breaths per minute by small animal TOPO ventilator (Kent Scientific). The aortic arch was exposed via a left thoracotomy and by carefully separating the thymus. A constriction of the transverse aorta was generated by tying a 6-0 Ethilon ligature against a 27-gauge blunt needle around the aorta between the brachiocephalic and left common carotid arteries. Promptly the needle was removed and the chest and skin were closed by 5-0 polypropylene suture. The animal was removed from ventilation and kept on a heating blanket during recovery from anesthesia. SR buprenorphine (0.05 mg/kg) was administered subcutaneously for analgesia. Sham operated mice underwent all the same procedures as TAC mice excluding the constriction of the aorta. All mice were monitored every 12 h during the first 72 h post-surgery, followed by daily visits over the next 4 weeks.
Transthoracic Echocardiography. Echocardiography of hearts was performed at indicated time after surgery using the VEVO 2100 high-frequency, high-resolution digital imaging system (VisualSonics) equipped with a MS400 Microscan Transducer on anesthetized mice (0.5%-2% isoflurane in 95% oxygen). Measurements were made when heart rate was >450 bpm. Cardiac function and geometry measurements were measured in parasternal short axis view. M-mode images were used for analysis and calculated by the average of at least three cardiac cycles and carried out in a blind fashion. Hearts were harvested at 12-week post-surgery for subsequent experiments and biochemical assays.

[2] = tested on: heart mRNA levels (Nppa, Ctgf, mtDNA encoded genes, PPARα/RXRα target genes); test: RT-PCR of heart transcripts and mitochondrial RNA junctions; assay type: in vivo, mouse
Description: RNA Extraction and Quantitative Real-Time Polymerase Chain Reaction (RT-PCR). Total RNA was isolated from frozen heart tissue using the RNeasy fibrous Kit (Qiagen). Total RNA was reverse-transcribed into first-strand cDNA using Iscript (Bio-rad) according to manufacturer's guidelines. Real Time PCR was performed using SYBR green (Bio-Rad). Results of mRNA levels were normalized to 18S rRNA levels and reported as fold-change over control.

NC(=O)c1ccc[n+]([C@@H]2O[C@H](CO)[C@@H](O)[C@H]2O)c1 [NR, Nicotinamide riboside chloride]
Left ventricular cavity dilation ([1]; Sirt3Ko TAC mice, similar to NR treated WT): less severe | Advances of heart failure ([1]; Sirt3Ko TAC mice, vs vehicle treatment): protected the Sirt3Ko TAO mice from advances of heart failure | EF ([1]; Sirt3Ko, Sham): 71.3% | FS ([1]; Sirt3Ko, Sham): 39.7% | IVS; s ([1]; Sirt3Ko, Sham): 1.49 mm | LV Mass ([1]; Sirt3Ko, Sham): 146.9 mg | LV Mass (corr.) ([1]; Sirt3Ko, Sham): 117.5 mg | LV Vol; d ([1]; Sirt3Ko, Sham): 42.0 µL | LV Vol; s ([1]; Sirt3Ko, Sham): 12.1 µL | LVID; d ([1]; Sirt3Ko, Sham): 3.21 mm | LVID; s ([1]; Sirt3Ko, Sham): 1.94 mm | LVPW; d ([1]; Sirt3Ko, Sham): 1.30 mm | LVPW; s ([1]; Sirt3Ko, Sham): 1.69 mm | IVS; d ([1]; Sirt3Ko, Sham): 1.04 mm | EF ([1]; Sirt3Ko, TAC): 59.2% | FS ([1]; Sirt3Ko, TAC): 30.9% | IVS; s ([1]; Sirt3Ko, TAC): 1.67 mm | LV Mass ([1]; Sirt3Ko, TAC): 168.9 mg | LV Mass (corr.) ([1]; Sirt3Ko, TAC): 135.1 mg | LV Vol; d ([1]; Sirt3Ko, TAC): 47.8 µL | LV Vol; s ([1]; Sirt3Ko, TAC): 19.8 µL | LVID; d ([1]; Sirt3Ko, TAC): 3.39 mm | LVID; s ([1]; Sirt3Ko, TAC): 2.35 mm | LVPW; d ([1]; Sirt3Ko, TAC): 1.22 mm | LVPW; s ([1]; Sirt3Ko, TAC): 1.51 mm | IVS; d ([1]; Sirt3Ko, TAC): 1.22 mm | Fractional shortening (FS %) ([1]; WT TAC mice, 8-week treatment): preserved FS % | EF ([1]; Wildtype, Sham): 78.9% | FS ([1]; Wildtype, Sham): 46.3% | IVS; s ([1]; Wildtype, Sham): 1.72 mm | LV Mass ([1]; Wildtype, Sham): 141.9 mg | LV Mass (corr.) ([1]; Wildtype, Sham): 113.5 mg | LV Vol; d ([1]; Wildtype, Sham): 37.3 µL | LV Vol; s ([1]; Wildtype, Sham): 7.9 µL | LVID; d ([1]; Wildtype, Sham): 3.07 mm | LVID; s ([1]; Wildtype, Sham): 1.65 mm | LVPW; d ([1]; Wildtype, Sham): 1.27 mm | LVPW; s ([1]; Wildtype, Sham): 1.64 mm | IVS; d ([1]; Wildtype, Sham): 1.12 mm | EF ([1]; Wildtype, TAC): 62.5% | FS ([1]; Wildtype, TAC): 32.7% | IVS; s ([1]; Wildtype, TAC): 1.78 mm | LV Mass ([1]; Wildtype, TAC): 183.9 mg | LV Mass (corr.) ([1]; Wildtype, TAC): 147.1 mg | LV Vol; d ([1]; Wildtype, TAC): 36.7 µL | LV Vol; s ([1]; Wildtype, TAC): 13.7 µL | LVID; d ([1]; Wildtype, TAC): 3.04 mm | LVID; s ([1]; Wildtype, TAC): 2.04 mm | LVPW; d ([1]; Wildtype, TAC): 1.52 mm | LVPW; s ([1]; Wildtype, TAC): 1.85 mm | IVS; d ([1]; Wildtype, TAC): 1.30 mm | Atrial natriuretic peptide (Nppa) levels ([2]; Sirt3ko and WT TAC mice): decreased | Connective growth factor (Ctgf) levels ([2]; Sirt3ko and WT TAC mice): decreased | Expression of mtDNA encoded genes (mt-Nd1, mt-Cox1 and mt-Cytb) ([2]; TAC hearts, Sirt3Ko and WT): improved | Expression of nuclear DNA encoded ETC genes ([2]; TAC hearts, Sirt3Ko and WT): not changed | Expression of PPARα target genes (Acadm, Ucp2, Ucp3, Octn2, Cpt1b) ([2]; failing (TAC) hearts): increased | Accumulation of mitochondrial RNA precursor fragments (Nd1-Nd2, Cox1-Cox2 junctions) ([2]; failing hearts of WT and Sirt3Ko mice): removed the accumulation of RNA precursor fragments
